From PubChem BioAssay (NCI)
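The compound was tested at five concentrations on cells cultured in 96-well plates, with a 48-hour exposure period. TGI marks complete inhibition of growth.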

Key:
Assay in all cases: DTP human tumour cell line panel, 48 h
MDA-MB-435 = tested on: MDA-MB-435
786-0 renal = tested on: 786-0 renal
A549 NSCLC = tested on: A549 NSCLC
NCI-H522 lung = tested on: NCI-H522 lung
NCI-H460 lung = tested on: NCI-H460 lung
OVCAR-4 ovarian = tested on: OVCAR-4 ovarian
SF-295 CNS = tested on: SF-295 CNS
SK-MEL-28 melanoma = tested on: SK-MEL-28 melanoma
UACC-257 melanoma = tested on: UACC-257 melanoma
UACC-62 melanoma = tested on: UACC-62 melanoma

| SMILES | TGI (MDA-MB-435) | TGI (786-0 renal) | TGI (A549 NSCLC) | TGI (NCI-H522 lung) | TGI (NCI-H460 lung) | TGI (OVCAR-4 ovarian) | TGI (SF-295 CNS) | TGI (SK-MEL-28 melanoma) | TGI (UACC-257 melanoma) | TGI (UACC-62 melanoma) |
| --- | --- | --- | --- | --- | --- | --- | --- | --- | --- | --- |
| O=C(O)CN1CCNCCN(CC(=O)O)CCN(CC(=O)O)CCNCC1 | > 100 µM | > 100 µM | > 100 µM | > 100 µM | > 100 µM | > 100 µM | > 100 µM | > 100 µM | > 100 µM | > 100 µM |
| O=C(/C=C/c1ccccc1)Oc1ccc(C(=O)/C=C/c2ccccc2)cc1 | 18.8 µM | 13.7 µM | > 89.1 µM | 23.6 µM | 18.8 µM | 55.5 µM | 24.4 µM | 21.3 µM | 20.3 µM | 17.7 µM |
| S=C1NC2=C(CSC/C2=C\c2cccc(Br)c2)C(c2cccc(Br)c2)N1 (stereo not given) | > 100 µM | > 100 µM | > 100 µM | > 100 µM | > 100 µM | > 100 µM | > 100 µM | > 100 µM | > 100 µM | > 100 µM |
| Cc1nc(C)c(N2CCN([N+](=O)[O-])CC2)c(=O)[nH]1 | > 100 µM | > 100 µM | > 100 µM | > 100 µM | > 100 µM | > 100 µM | > 100 µM | > 100 µM | > 100 µM | > 100 µM |
| CCNC(=S)NNC(=O)C12CC3CC(CC(C3)C1)C2 | > 100 µM | > 100 µM | > 100 µM | > 100 µM | > 100 µM | > 100 µM | > 100 µM | > 100 µM | > 100 µM | > 100 µM |
| COc1cc2c(cc1OC)C1C3CCCCC3CCN1CC2 (stereo not given) | > 100 µM | > 100 µM | > 100 µM | > 100 µM | > 100 µM | > 100 µM | > 100 µM | > 100 µM | > 100 µM | > 100 µM |
| CC1(C)OC[C@@H](O)[C@H](C#N)CO1 | > 100 µM | > 100 µM | > 100 µM | > 100 µM | > 100 µM | > 100 µM | > 100 µM | > 100 µM | > 100 µM | > 100 µM |
| COc1ccc(-c2nc(SCC(=O)NNC(=S)Nc3ccccc3)[nH]c2-c2ccc(OC)cc2)cc1 | 46.7 µM | 60.7 µM | > 100 µM | 42.4 µM | 32.2 µM | > 100 µM | 39.8 µM | 66.8 µM | 44.1 µM | 30.6 µM |
| CCOS(C)(=O)=O | > 100 µM | > 100 µM | > 100 µM | > 100 µM | > 100 µM | > 100 µM | > 100 µM | > 100 µM | > 100 µM | > 100 µM |
| CC(C)SC(=S)Sc1c(Cl)c(Cl)nc(Cl)c1Cl | 19.6 µM | 5.54 µM | 40.8 µM | 11.6 µM | 36.6 µM | 28.4 µM | 30.5 µM | > 100 µM | 9.57 µM | 24.1 µM |
| COC(=O)/C=C\C(C#N)(C#N)N=Cc1ccc(C)cc1 | 5.01 µM | 3.44 µM | 34.3 µM | 1.64 µM | 41.1 µM | 12.9 µM | 51 µM | 19.8 µM | 12.6 µM | 28.4 µM |
| N#CC(C#N)=C1SC(=Nc2ccccc2)C(=Nc2ccccc2)N1c1ccccc1 | 35.1 µM | 60.8 µM | > 100 µM | 4.08 µM | > 31.6 µM | 34.8 µM | > 76.6 µM | > 58 µM | 30 µM | 14.2 µM |
| Cc1cc(/N=C/c2ccc(N(C)C)cc2)n(-c2ccccc2)n1 | > 100 µM | > 100 µM | > 100 µM | > 100 µM | > 100 µM | > 100 µM | > 100 µM | > 100 µM | > 100 µM | > 100 µM |
| O=C(O)CN1CCN2CCCCCN(CC1)CCN(CC(=O)O)CC2 | > 100 µM | > 100 µM | > 100 µM | > 100 µM | > 100 µM | > 100 µM | > 100 µM | > 100 µM | > 100 µM | > 100 µM |
| COC(C)(C)C1(O)CC[C@@H](C)CC1=O (stereo not given in full) | > 100 µM | > 100 µM | > 100 µM | > 100 µM | > 100 µM | > 100 µM | > 100 µM | > 100 µM | > 100 µM | > 100 µM |
| NS(=O)(=O)c1ccc(NC(=S)/N=C/C2=C(O)c3ccccc3C2=O)cc1 | > 100 µM | > 100 µM | > 100 µM | > 100 µM | > 100 µM | > 100 µM | > 100 µM | > 100 µM | > 100 µM | > 100 µM |
| CC(c1ccccc1)N1CCN(C(C)c2ccccc2)CC1 (stereo not given) | > 100 µM | > 100 µM | > 100 µM | > 100 µM | > 100 µM | > 100 µM | > 100 µM | 95.4 µM | > 100 µM | > 100 µM |
| Cn1c(SCc2ccc(F)cc2)nnc1C12CC3CC(CC(C3)C1)C2 | 61.7 µM | > 100 µM | > 100 µM | > 100 µM | > 100 µM | > 100 µM | > 100 µM | 86.2 µM | 91.7 µM | > 100 µM |
